{
  "source": "BindingDB's records for doi:10.1021/acs.jnatprod.7b00282",
  "about": "(Chiba University, 2017)",
  "note": "pIC50: −log10 of the molar value.",
  "data": [
    {"test": "Inhibition of recombinant mouse N-terminal FLAG-tagged Notch1 (1704 to 2531 residues) expressed in human LS174T cells assessed as reduction in doxycycline-induced NICD expression after 12 hrs by Bright-Glo luciferase reporter gene assay", "values": [
      {"smiles": "C[C@@H]1C[C@@]2(N=CCS2)[C@]2(O)O[C@@H]3C[C@@]4(C=O)[C@@H](CC[C@@H]5[C@@H]4CC[C@]4(C)[C@@H](C6=CC(=O)OC6)[C@H](O)C[C@]54O)C[C@H]3O[C@@H]2O1", "pIC50": 6.15},
      {"smiles": "C[C@@H]1C[C@@]2(NCCS2)[C@]2(O)O[C@@H]3C[C@@]4(C=O)[C@@H](CC[C@@H]5[C@@H]4CC[C@]4(C)[C@@H](C6=CC(=O)OC6)CC[C@]54O)C[C@H]3O[C@@H]2O1", "pIC50": 5.70},
      {"smiles": "C[C@@H]1C[C@@]2(NC(=O)CS2)[C@]2(O)O[C@@H]3C[C@@]4(C=O)[C@@H](CC[C@@H]5[C@@H]4CC[C@]4(C)[C@@H](C6=CC(=O)OC6)CC[C@]54O)C[C@H]3O[C@@H]2O1", "pIC50": 6.52},
      {"smiles": "COC(=O)[C@@]1(O)C[C@@H](C)O[C@H]1O[C@@H]1C[C@@H]2CC[C@@H]3[C@H](CC[C@]4(C)[C@@H](C5=CC(=O)OC5)[C@H](O)C[C@]34O)[C@@]2(C=O)C[C@H]1O", "pIC50": 4.76},
      {"smiles": "CC(=O)O[C@H]1C[C@@H](C)O[C@H]2O[C@@H]3C[C@@H]4CC[C@@H]5[C@H](CC[C@]6(C)[C@@H](C7=CC(=O)OC7)CC[C@]56O)[C@@]4(C=O)C[C@H]3O[C@]21O", "note": "[CHEBI:2867]", "pIC50": 6.52},
      {"smiles": "C[C@@H]1C[C@H](O)[C@]2(O)O[C@@H]3C[C@@]4(C=O)[C@@H](CC[C@@H]5[C@@H]4CC[C@]4(C)[C@@H](C6=CC(=O)OC6)CC[C@]54O)C[C@H]3O[C@@H]2O1", "note": "[CHEBI:3329]", "pIC50": 6.10},
      {"smiles": "C[C@@H]1CC(=O)[C@]2(O)O[C@@H]3C[C@@]4(C=O)[C@@H](CC[C@@H]5[C@@H]4CC[C@]4(C)[C@@H](C6=CC(=O)OC6)CC[C@]54O)C[C@H]3O[C@@H]2O1", "note": "[CHEBI:9913]", "pIC50": 5.62},
      {"smiles": "C[C@@H]1C[C@@]2(N=CCS2)[C@]2(O)O[C@@H]3C[C@@]4(C=O)[C@@H](CC[C@@H]5[C@@H]4CC[C@]4(C)[C@@H](C6=CC(=O)OC6)CC[C@]54O)C[C@H]3O[C@@H]2O1", "note": "[Uscharin]", "pIC50": 6.40}
    ]}
  ]
}
